From patent publication US11420967B2 (priority 2018, dated 2022)
Where two headings read alike, the source gives them in different places.

Assays:
T98G cells = test: Antitumor activity in T98G cells in culture (WST-1 cell viability); type: cell-based, human; details: for EC50: WST-1, 72 hours after treatment, read-out: EC50; for Emax: read-out: maximal efficacy at killing T98G cells; for increase in EC50 value relative to compound 8: compared with 8 (87 nM)
Experimental: Unless otherwise noted, maximal efficacies were measured at 10 μM. Data are the mean of at least three independent experiments performed in triplicate.
Cell culture. Cells were cultured in DMEM supplemented with 10% FBS, 100 U/mL penicillin, and 100 μg/mL streptomycin at 37° C. in a 5% CO2 humidified atmosphere. T98G and HepG2 cells (ATCC, Manassas, Va.) were authenticated by ATCC when purchased using human short tandem repeat analysis and maintained in culture for less than 6 months. Tumors were obtained from surgeries performed at the Swedish Medical Center (Seattle, Wash.) according to Institutional Review Board guidelines. Patient samples used in this study were diagnosed as WHO grade IV glioblastoma multiforme. Patient-derived GBM cells were established from the freshly resected tumor tissues and maintained in NeuroCult® NSA medium (Stem Cell Technologies) with B-27 serum-free supplement, 20 ng/mL epidermal growth factor and 20 ng/mL fibroblast growth factor 2 as previously described.
Cell viability. […] Maximal % killing was calculated as the % reduction in cell viability measured at all drug concentration. EC50 values were calculated and reported only when a curve was reliably extrapolated by Prism software. The solvent for all modified carbazoles was DMSO (0.1% final).

[1] = target: T1, cannabinoid CB2 receptor (hCB2) (Homo sapiens, UniProt P34972); test: β-arrestin recruitment in hCB2-transfected HEK293 cells; type: cell-based; details: β-arrestin recruitment
T1 construct: expressed in transfected cells; host or cells: HEK293

[2] = target: T2, cannabinoid CB1 receptor (hCB1) (Homo sapiens, UniProt P21554); test: β-arrestin recruitment in hCB1-transfected HEK293 cells; type: cell-based; details: β-arrestin recruitment
T2 construct: expressed in transfected cells; host or cells: HEK293

[3] = Homo sapiens, T98G cells, rounded values of the discussion
[4] = Homo sapiens, T98G, T98G cells, rounded values of the discussion

T2 sequence (P21554 whole entry): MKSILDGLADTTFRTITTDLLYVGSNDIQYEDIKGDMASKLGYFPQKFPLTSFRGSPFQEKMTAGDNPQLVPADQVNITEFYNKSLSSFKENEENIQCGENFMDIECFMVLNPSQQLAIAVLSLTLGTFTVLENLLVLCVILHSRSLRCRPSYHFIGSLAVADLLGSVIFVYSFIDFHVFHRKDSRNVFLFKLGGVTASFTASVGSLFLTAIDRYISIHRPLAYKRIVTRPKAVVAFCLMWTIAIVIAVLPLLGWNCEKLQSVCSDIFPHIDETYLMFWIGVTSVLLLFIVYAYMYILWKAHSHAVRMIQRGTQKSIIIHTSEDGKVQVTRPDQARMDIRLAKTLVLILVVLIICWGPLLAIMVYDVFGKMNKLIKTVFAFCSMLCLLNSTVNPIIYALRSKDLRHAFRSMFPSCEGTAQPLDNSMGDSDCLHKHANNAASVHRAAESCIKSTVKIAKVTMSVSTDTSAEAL
T1 sequence (P34972 whole entry): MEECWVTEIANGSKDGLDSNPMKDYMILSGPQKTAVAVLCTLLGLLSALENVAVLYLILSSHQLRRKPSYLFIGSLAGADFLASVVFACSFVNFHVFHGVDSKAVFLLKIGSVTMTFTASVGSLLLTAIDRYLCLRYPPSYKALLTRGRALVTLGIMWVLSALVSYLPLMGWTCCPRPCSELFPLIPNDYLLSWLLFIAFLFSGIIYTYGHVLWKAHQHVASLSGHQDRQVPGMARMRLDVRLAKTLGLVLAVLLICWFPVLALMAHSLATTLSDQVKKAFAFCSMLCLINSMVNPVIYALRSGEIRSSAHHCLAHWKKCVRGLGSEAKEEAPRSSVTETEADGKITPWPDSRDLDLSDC

SMILES | EC50 (T98G cells; Homo sapiens, T98G cells) | antitumor activity in T98G cells (in words) (T98G cells; T98G cells) | effect on T98G cell viability (in words) (T98G cells; T98G cells) | maximal killing (% ± SEM) (T98G cells; T98G cells, at 10 μM, 72 hours) | Emax (T98G cells; [3]) | increase in EC50 value relative to compound 8 (T98G cells; T98G cells) | other results
CCn1c2ccccc2c2cc(C(=O)N3CCN(C)CC3)ccc21 [Compound 9, 9-ethyl-3-(4-methylpiperazine-1-carbonyl)-9H-carbazole] | > 10 µM | only active at concentrations above five micromolar | did not affect T98G cell viability significantly | 13.2% |  |  | 
CCn1c2ccccc2c2cc(C(=O)c3ccc(Cl)cc3)ccc21 [Compound 10, 3-(4-chlorobenzoyl)-9-ethyl-9H-carbazole] | 1.5 µM |  |  | 71.1% | 61% |  | 
CCn1c2ccccc2c2cc(C(=O)c3ccc(F)cc3)ccc21 [Compound 11, 9-ethyl-3-(4-fluorobenzoyl)-9H-carbazole] | 8 µM |  |  | 54.8% | 55% |  | 
CCn1c2ccccc2c2cc(C(=O)c3ccc(C)cc3)ccc21 [Compound 12, 9-ethyl-3-(4-methylbenzoyl)-9H-carbazole] | 0.993 µM |  |  |  | 84% | 11 fold | maximal killing (% ± SEM) (T98G cells; T98G cells, at 3 μM, 72 hours): 83.6%
CCn1c2ccccc2c2cc(C(=O)Cc3ccccc3)ccc21 [Compound 13, 1-(9-ethyl-9H-carbazol-3-yl)-2-phenylethan-1-one] | > 10 µM | only active at concentrations above five micromolar | did not affect T98G cell viability significantly |  |  | more than 115 fold | maximal killing (% ± SEM) (T98G cells; T98G cells, at 3 μM, 72 hours): 14.0%
CCn1c2ccccc2c2cc(C(=O)c3cccc4ccccc34)ccc21 [Compound 14, 9-ethyl-3-(naphthalene-1-carbonyl)-9H-carbazole] | 1.7 µM |  |  | 72.0% |  | 20 fold | Emax (T98G cells; [4]): 72%
CCCn1c2ccccc2c2cc(C(=O)c3ccc(C)c4ccccc34)ccc21 [Compound 16, 9-propyl-3-[(4-methylnaphthalen-1-yl)carbonyl]-9H-carbazole] | > 10 µM | only active at concentrations above five micromolar | did not affect T98G cell viability significantly | 16.3% |  | 115 fold | 
Cc1ccc(C(=O)c2ccc3c(c2)c2ccccc2n3CC(F)(F)F)c2ccccc12 [Compound 18, 3-(4-methylnaphthalene-1-carbonyl)-9-(2,2,2-trifluoroethyl)-9H-carbazole] | 5.6 µM | only active at concentrations above five micromolar |  | 35.6% |  | 64 fold | Emax (T98G cells; [4]): 35 to 45%; maximal efficacy at killing T98G cells (T98G cells; T98G cells, rounded values of the discussion): 35%
CCn1c2ccccc2c2cc(C(=O)c3cccc4cccnc34)ccc21 [Compound 22, 9-ethyl-3-(quinoline-8-carbonyl)-9H-carbazole] | 8.8 µM |  |  | 60.0% | 60% |  | reduction of maximal antitumor efficacy relative to compound 25 (T98G cells): 96%
CCn1c2ccccc2c2cc(C(=O)c3cccc4c3NCCC4)ccc21 [Compound 24, 9-ethyl-3-(1,2,3,4-tetrahydroquinoline-8-carbonyl)-9H-carbazole] | > 10 µM | only active at concentrations above five micromolar | did not affect T98G cell viability significantly |  |  |  | maximal killing (% ± SEM) (T98G cells; T98G cells, at 100 nM, 72 hours): −18.0%
Cc1ccc(C(=O)n2c3ccccc3c3ccccc32)c2ccccc12 [Compound 28, 9-(4-methylnaphthalene-1-carbonyl)-9H-carbazole] | 0.957 µM |  |  | 89.1% | 89% |  | 
COc1ccc(/C=C\c2cc(OC)c(OC)c(OC)c2)cc1O [combretastatin A-4, reference compound] |  |  |  |  |  |  | EC50 (T98G cells; T98G cells): 0.0006 µM; maximal killing (T98G cells; T98G cells, at 10 nM, 72 hours): 30.4%±2.1
CCCCCCC(C)(C)c1ccc([C@@H]2C[C@H](O)CC[C@H]2CCCO)c(O)c1 [positive control, CP55940, reference compound] |  |  |  |  |  |  | Antagonist efficacy (% activation) CB2 [1]: 92 % activation; Agonist efficacy (% activation) CB1 [2]: 1940 % activation; Antagonist efficacy (% activation) CB1 [2]: 97 % activation
